Measurements: patent publication US4734376A, “Process for the spectrophotometric measurement of lithium ion employing a chromogenic aza-12-crown-4- ether” (The President & Trustees of the Miami University, priority 1986, dated 1988)
“Also recorded” adds a separate entry of the source. Like-named read-outs stand apart in the source and are kept apart here.

Assays:
[1] = pH dependence of the structures; type: physicochemical
[2] = Effect of sodium ion on lithium determination; type: physicochemical; settings: 30-fold excess of sodium ions to lithium ions (Na+:Li+ weight ratio 30:1); versus Li+ alone; chloroform layer (Example 9: 400 nm)
Procedure: The effect of sodium ion in the system was determined in a procedure similar to that used in Example 7. A series of six round-bottomed flasks containing 5 ml of chloroform, and 5 ml of an aqueous solution containing aza-12-crown-4 reagent (6.7×10^-4 M), lithium chloride (1×10^-4 =0.694 μg ml^-1), and a variable amount of sodium chloride [sodium chloride was added to five of these flasks in 0.001M increments whereby the [NaCl]aq =1×10^-3 M to 5×10^-3 M (23 μg ml^-1 through 115 μg ml^-1); one flask served as a sodium-free blank]. Absorbance of the organic layer was measured on a spectrophotomer. The results are illustrated in FIG. 4.

[3] = Effect of organic solvents and bases on response to lithium and sodium ion; type: physicochemical
Procedure: Three solvents--chloroform, 1,2-dichloroethane and methylene chloride--werecompared using potassium hydroxide and sodium hydroxide as bases. […] At 0.1M hydroxide, however, large differences were observed both between the cations and between the organic solvents. […] The best stability of the absorbance after the separation of organic layer from the equilibrium system was also observed for this system.
Various other organic solvents were tested as organic media with a 0.01 M potassium hydroxide.

[4] = Determination of acid dissociation constants K1 and K2 by spectrophotometric titration; type: physicochemical; settings: μ = 0.1 (CsCl), aqueous
Procedure: A 50 ml aqueous solution containing the crown reagent of Example 5 (8.70×10^-5 M), hydrochloric acid (6×10^-4 M), and cesium chloride (0.1 M) was titrated with potassium hydroxide [0.1 M (below pH12), and 1 M (above pH12)], using a Metrohm automatic titrator, Dosimat E535 equipped with Potentiograph E536. The titration was interrupted in every 0.3-1.5 pH increase for the measurement of the absorption spectrum of the solution. A 3-4 ml portion of the solution was taken to a cuvette, the spectrum was recorded on a Hewlett-Packard 8450A spectrometer, and the solution was returned to the titration vessel using a pipet. The magnitude of the spectrum was corrected in order to adjust for dilution upon titration, and corrected results shown in FIG. 1.
[formula] where K1 and K2 denote the acid dissociation constants, and KML a complex formation constant. By assuming no significant complex-formation, an absorbance A at any wavelength and the total concentration of the reagent [HL]t are written as
A=εHLH.spsb.+ [HLH^+ ]+εHL
[HL]+εLL.spsb.- [L^- ] (4)
[HL]t =[HLH^ […] ]+[HL]+[L^- ] (5)
where ε's are molar absorption coefficients. […]
At 342.8 nm and at pH ≥9.7, the absorbance deviating from the isosbestic point reflects the decay of HL and the growth of L-, so that these absorbance data can be used for the evaluation of -logK2 using Eq. (7). […]

[5] = Determination of extraction constant KML^ex, lithium ion; type: physicochemical; settings: for -log K^ex LiL (extraction constant): solvent chloroform
Excerpt: (§1) Extraction equilibria are illustrated in FIG. 2 and in the following equation: [formula] where [M^+ ]t denotes a total alkali metal concentration. By assuming [L^-a ]>>[HLa ]+[MLa ], and [M^+ ]t >>[HL]t,
(§2) [HL]t =[HLo ]+[MLo ]+[L^-a ] (12)
(§3) Combining Eq. (8), (11), (12), and (13) gives [formula] where Δε=εMLo -εHLo, and E° denotes the E value in the absence of the metal ion in the system (E°=^ε HLo). […] The absorbance at the isosbestic point 401.4 nm shown in FIG. 1 gives εL.spsb.-.sbsb.a, so that the values of E and Eo, which are necessary for the plot, can be obtained experimentally.
(§4) Determination of the partition equilibrium system was made in a manner similar to that employed in Example 7. The concentrations [HL]t, [M^+ ]t, and [OH^- ] were 5.35×10^-5 M, 4×10^-3 M-2 M (as chloride), and 10^-2 M-10^-1 M (as potassium hydroxide), respectively. Chloroform was used as the organic medium.
(§5) In order to confirm the important assumption [La^- ]>>[HLa]+[MLa ], Eq.(11) (the left equation) was used for the evaluation of E instead of Eq.(15), which was derived from Eq.(11) under the assumption, and the obtained extraction constants compared with those obtained using Eq.(15). When Eq.(11) was applied, the species HLo and MLo in the organic layer were extracted into 0.1M hydrochloric acid as HLH^+, and the concentration of HLH+was determined spectrophotometrically and equated to [HLo ]+[MLo ]in Eq.(11). The extraction constants obtained in this way are […]

[6] = Determination of extraction constant KML^ex, sodium ion; type: physicochemical; settings: for -log K^ex NaL (extraction constant): solvent chloroform
Excerpt: as §1, §2, §3, §4, §5

[7] = μ = 0.1 (CH3)4NCl; reported by Nakamura et al; cited from earlier work
[8] = solvent 1,2-dichloroethane; pH not specified; reported by Nakamura et al; cited from earlier work
[9] = cited from earlier work
[10] = obtained using Eq. (11), organic species back-extracted into 0.1M hydrochloric acid, chloroform

Compound: O=[N+]([O-])c1ccc(O)c(CN2CCOCCOCCOCC2)c1 [aza-12-crown-4, 1-(2-oxy-5-nitrobenzyl)-1-hydro-1-aza-4,7,10-trioxacyclododecane]
- pH at which the structure predominates ([1]; listed as iii): approximately 8
- increase in absorbance in presence of sodium ion [2]: 8%
- sensitivity and interference differences between bases and solvents ([3]; 0.01 M hydroxide, chloroform, 1,2-dichloroethane, methylene chloride, KOH and NaOH): no significant sensitivity and interference differences were observed
- sensitivity and sodium interference, bases and solvents ([3]; 0.1M hydroxide, chloroform, 1,2-dichloroethane, methylene chloride, KOH and NaOH): Potassium hydroxide gave higher sensitivity in both chloroform and methylene chloride than sodium hydroxide, but not in 1,2-dichloroethane; also recorded: Methylene chloride exhibited the highest sensitivity when used with potassium hydroxide, but was subject to increased interference by sodium ions; also recorded: The combination of methylene chloride and sodium hydroxide allowed most of the reagent to pass into the organic layer; also recorded: optimum combination of high sensitivity, low interference, and low blank absorption was achieved by a system employing 0.1M potassium hydroxide and chloroform
- response / extraction by organic solvent ([3]; organic solvents tested with 0.01 M potassium hydroxide): no response of the reagent to lithium and sodium ion was observed; also recorded: Methyisobutyl-ketone showed only slight extraction of the metal complex; also recorded: No extraction occurred into benzene, carbon tetrachloride, chlorobenzene, and trichlorethylene
- response with triethylamine as base ([3]; triethylamine 1M in CHCl3, compared with KOH): the response to lithium ions was smaller and the response to sodium ions was larger
- response with triethylamine plus sodium hydroxide ([3]; triethylamine 1M in CHCl3 and sodium hydroxide 0.1M): intermediate response to lithium ions, and the response was not stable
- -log K1 (acid dissociation constant) [4]: 5.77
- -log K2 (acid dissociation constant; pK2) [4]: 10.31
- -log K^ex LiL (extraction constant) ([5]; 0.05M KOH): 10.23
- -log K^ex LiL (extraction constant) ([5]; 0.1M KOH): 10.18
- dependence of -log KLiL^ex on hydroxide concentration ([5]; 10^-2 M-10^-1 M KOH, chloroform): not significantly dependent on the hydroxide concentration employed
- ratio of KLiL^ex to KNaL^ex (selectivity) ([5]; compared with aza-15-crown-5): much greater than the aza-15-crown5
- KLiL^ex smaller than that of prior art aza-15-crown-5, factor ([5]; compared with prior art aza-15-crown-5): smaller by a factor of ten
- -log KLiL^ex (extraction constant) [5, 10]: 10.25
- -log K^ex NaL (extraction constant) ([6]; 0.05M KOH): 12.49
- -log K^ex NaL (extraction constant) ([6]; 0.1M KOH): 12.50
- -log KNaL^ex (extraction constant) [6, 10]: 12.47

Compound: O=[N+]([O-])c1ccc(O)c(CN2CCOCCOCCOCCOCC2)c1 [aza-15-crown-5, N-(2-hydroxy-5-nitrobenzyl)-aza-15-crown-5]
- -log K1 (acid dissociation constant) [7]: 5.79
- -log K2 (acid dissociation constant) [7]: 9.69
- -log K^ex NaL (extraction constant) [8]: 9.76
- -log K^ex LiL (extraction constant) ([9]; solvent 1,2-dichloroethane, pH not specified, reported by Nakamura et al): 9.15

Compound: C1COCCN2CCOCCN(CCO1)CCOCC2 [cryptand [2,1,1]]
- sensitivity to lithium ions ([9]; cryptand itself, without ion pairing agent): not sensitive to lithium ions
- extraction of lithium ions compared with reagent of Nakamura et al ([9]; with ion pairing agent resazurin): more selectively and more efficiently

Compound: O=[N+]([O-])c1ccc(O)c(CN2CCOCCOCCOCC2)c1 [i, 1-(2-hydroxy-5-nitrobenzyl)-1-hydro-1-aza-4,7,10-trioxacyclododecane]
- pH at which the structure predominates [1]: less than 5

Compound: O=[N+]([O-])c1ccc(O)c(CN2CCOCCOCCOCC2)c1 [ii, 1-(2-oxy-5-nitrobenzyl)1-aza-4,7,10-trioxacyclododecane]
- pH at which the structure predominates [1]: greater than 11
